A short description of data set [1]: The drug is tested on Z-030 corresponding to mouse gut metagenome with ENA study accession number: PRJEB37062 and ENA sample accession number: ERS12561829 for biotransformation under anaerobic condition. The drug concentrations were measured over 9 timepoints collected between 0 and 24 hours of incubation by liquid-chromatography-coupled mass spectrometry (LC–MS). The note with it: 2 µM.

The nature of data set [2]: The drug is tested on Z-025 corresponding to rabbit gut metagenome with ENA study accession number: PRJEB37062 and ENA sample accession number: ERS12561824 for biotransformation under anaerobic condition. The drug concentrations were measured over 9 timepoints collected between 0 and 24 hours of incubation by liquid-chromatography-coupled mass spectrometry (LC–MS). The note with it: 2 µM.

Data set [3] can be described thus: The drug is tested on Z-016 corresponding to mouse gut metagenome with ENA study accession number: PRJEB37062 and ENA sample accession number: ERS12561815 for biotransformation under anaerobic condition. The drug concentrations were measured over 9 timepoints collected between 0 and 24 hours of incubation by liquid-chromatography-coupled mass spectrometry (LC–MS). The following applies: 2 µM.

Data set [4] is described as follows: The drug is tested on Z-008 corresponding to metagenome with ENA study accession number: PRJEB37062 and ENA sample accession number: ERS12561808 for biotransformation under anaerobic condition. The drug concentrations were measured over 9 timepoints collected between 0 and 24 hours of incubation by liquid-chromatography-coupled mass spectrometry (LC–MS). The note with it: 2 µM.

A short description of data set [5]: The drug is tested on Z-005 corresponding to metagenome with ENA study accession number: PRJEB37062 and ENA sample accession number: ERS12561805 for biotransformation under anaerobic condition. The drug concentrations were measured over 9 timepoints collected between 0 and 24 hours of incubation by liquid-chromatography-coupled mass spectrometry (LC–MS). The note with it: 2 µM.

A short description of data set [6]: The drug is tested on Z-004 corresponding to metagenome with ENA study accession number: PRJEB37062 and ENA sample accession number: ERS12561804 for biotransformation under anaerobic condition. The drug concentrations were measured over 9 timepoints collected between 0 and 24 hours of incubation by liquid-chromatography-coupled mass spectrometry (LC–MS). The note with it: 2 µM.

A short description of data set [7]: The drug is tested on WLS-310 corresponding to human gut metagenome with ENA study accession number: PRJEB37062 and ENA sample accession number: ERS12561785 for biotransformation under anaerobic condition. The drug concentrations were measured over 9 timepoints collected between 0 and 24 hours of incubation by liquid-chromatography-coupled mass spectrometry (LC–MS). The note with it: 2 µM.

The nature of data set [8]: The drug is tested on WLS-098 corresponding to human gut metagenome with ENA study accession number: PRJEB37062 and ENA sample accession number: ERS12561754 for biotransformation under anaerobic condition. The drug concentrations were measured over 9 timepoints collected between 0 and 24 hours of incubation by liquid-chromatography-coupled mass spectrometry (LC–MS). The note with it: 2 µM.

The nature of data set [9]: The drug is tested on WLS-090 corresponding to human gut metagenome with ENA study accession number: PRJEB37062 and ENA sample accession number: ERS12561753 for biotransformation under anaerobic condition. The drug concentrations were measured over 9 timepoints collected between 0 and 24 hours of incubation by liquid-chromatography-coupled mass spectrometry (LC–MS). The following applies: 2 µM.

The nature of data set [10]: The drug is tested on WLS-086 corresponding to human gut metagenome with ENA study accession number: PRJEB37062 and ENA sample accession number: ERS12561752 for biotransformation under anaerobic condition. The drug concentrations were measured over 9 timepoints collected between 0 and 24 hours of incubation by liquid-chromatography-coupled mass spectrometry (LC–MS). The note with it: 2 µM.

Data set [11] is described as follows: The drug is tested on WLS-039 corresponding to human gut metagenome with ENA study accession number: PRJEB37062 and ENA sample accession number: ERS12561746 for biotransformation under anaerobic condition. The drug concentrations were measured over 9 timepoints collected between 0 and 24 hours of incubation by liquid-chromatography-coupled mass spectrometry (LC–MS). The note with it: 2 µM.

Data set [12] can be described thus: The drug is tested on WLS-006 corresponding to human gut metagenome with ENA study accession number: PRJEB37062 and ENA sample accession number: ERS12561741 for biotransformation under anaerobic condition. The drug concentrations were measured over 9 timepoints collected between 0 and 24 hours of incubation by liquid-chromatography-coupled mass spectrometry (LC–MS). The following applies: 2 µM.

The conditions of data set [13]: human gut metagenome, 24 h, 2 µM.
For data set [14] the following is noted: human gut metagenome, 24 h, 2 µM. This is another data set of the same source.
For data set [15] the following is noted: human gut metagenome, 24 h, 2 µM. This is another data set of the same source.
For data set [16] the following is noted: human gut metagenome, 24 h, 2 µM. The source holds these as a separate data set.
For data set [17] the following is noted: human gut metagenome, 24 h, 2 µM. The source holds these as a separate data set.
The conditions of data set [18]: human gut metagenome, 24 h, 2 µM. This is another data set of the same source.
The conditions of data set [19]: human gut metagenome, 24 h, 2 µM. This is another data set of the same source.
For data set [20] the following is noted: human gut metagenome, 24 h, 2 µM. The source holds these as a separate data set.
Further: call rule not given here.

In the case of `CC[C@@H](CO)NC(=O)[C@@H]1C=C2c3cccc4c3c(cn4C)C[C@H]2N(C)C1.O=C(O)/C=C\C(=O)O` [METHYSERGIDE MALEATE], the “Bacterial Biotransformation” value in data set [1], in [2], in data set [3], in data set [4], in [5] and in data set [6] was “Compound NOT metabolized” throughout. In addition, the “Bacterial Biotransformation” value in data set [7] is “Compound metabolized”; in [8], “Compound NOT metabolized”; in data set [9], “Compound NOT metabolized”; in [10], “Compound metabolized”; in data set [11], “Compound NOT metabolized”; in data set [12], “Compound NOT metabolized”. Further, the “Bacterial Biotransformation” value was “Compound NOT metabolized” in [13]; “Compound NOT metabolized” in [14]; “Compound NOT metabolized” in [15]; “Compound metabolized” in [16]; “Compound NOT metabolized” in data set [17]; “Compound NOT metabolized” in data set [18]. In addition, the “Bacterial Biotransformation” value in data set [19] and in data set [20] was “Compound NOT metabolized” throughout.

Turning to `CCN(CC)CCNC(=O)c1cc(Cl)c(N)cc1OC` [METOCLOPRAMIDE], the “Bacterial Biotransformation” value in data set [1], in data set [2], in data set [3], in data set [4], in data set [5] and in [6] was “Compound NOT metabolized” throughout. Moreover, the “Bacterial Biotransformation” value in [7] was “Compound NOT metabolized”; in data set [8] it was “Compound NOT metabolized”; in data set [9], “Compound NOT metabolized”; in [10], “Compound metabolized”; in [11], “Compound NOT metabolized”; in data set [12] it was “Compound NOT metabolized”. Moreover, the “Bacterial Biotransformation” value in [13], in [14], in data set [15], in [16], in data set [17] and in data set [18] was “Compound NOT metabolized” throughout. In addition, the “Bacterial Biotransformation” value in [19] and in data set [20] was “Compound NOT metabolized” each time.

As for `Cc1ccccc1N1C(=O)c2cc(S(N)(=O)=O)c(Cl)cc2NC1C` (stereo not given) [METOLAZONE], the “Bacterial Biotransformation” value in data set [1] was “Compound NOT metabolized”; in data set [2] it was “Compound metabolized”; in data set [3], “Compound NOT metabolized”; in data set [4], “Compound NOT metabolized”; in data set [5] it was “Compound NOT metabolized”; in data set [6], “Compound NOT metabolized”. Also, the “Bacterial Biotransformation” value in data set [7] is listed as “Compound NOT metabolized”; in data set [8], “Compound metabolized”; in data set [9] it was “Compound metabolized”; in data set [10], “Compound metabolized”; in data set [11] it was “Compound NOT metabolized”; in data set [12] it was “Compound NOT metabolized”. The “Bacterial Biotransformation” value in data set [13] is given as “Compound NOT metabolized”; in data set [14], “Compound metabolized”; in [15], “Compound NOT metabolized”; in [16] it was “Compound metabolized”; in data set [17], “Compound metabolized”; in [18], “Compound NOT metabolized”. Besides, the “Bacterial Biotransformation” value in [19] is recorded as “Compound metabolized”; in data set [20] it was “Compound NOT metabolized”.

As for `COCCc1ccc(OCC(O)CNC(C)C)cc1.COCCc1ccc(OCC(O)CNC(C)C)cc1.O=C(O)C(O)C(O)C(=O)O` (stereo not given) [METOPROLOL TARTRATE], the “Bacterial Biotransformation” value is listed as “Compound NOT metabolized” in data set [1]; “Compound metabolized” in data set [2]; “Compound NOT metabolized” in [3]; “Compound NOT metabolized” in [4]; “Compound NOT metabolized” in [5]; “Compound NOT metabolized” in [6]. Moreover, the “Bacterial Biotransformation” value was “Compound metabolized” in [7]; “Compound metabolized” in data set [8]; “Compound metabolized” in data set [9]; “Compound metabolized” in data set [10]; “Compound NOT metabolized” in data set [11]; “Compound NOT metabolized” in data set [12]. Moreover, the “Bacterial Biotransformation” value is given as “Compound NOT metabolized” in data set [13]; “Compound NOT metabolized” in data set [14]; “Compound metabolized” in data set [15]; “Compound NOT metabolized” in data set [16]; “Compound NOT metabolized” in data set [17]; “Compound NOT metabolized” in data set [18]. Moreover, the “Bacterial Biotransformation” value in data set [19] and in data set [20] was “Compound NOT metabolized” in each case.

`COc1c(C)c2c(c(O)c1C/C=C(\C)CCC(=O)OCCN1CCOCC1)C(=O)OC2` [MYCOPHENOLATE MOFETIL]: the “Bacterial Biotransformation” value in [1] is reported as “Compound NOT metabolized”; in [2] it was “Compound metabolized”; in data set [3], “Compound metabolized”; in data set [4] it was “Compound metabolized”; in [5], “Compound metabolized”; in data set [6], “Compound metabolized”. Moreover, the “Bacterial Biotransformation” value in [7], in [8], in [9], in data set [10], in [11] and in data set [12] was “Compound metabolized” in each case. For the same molecule, the “Bacterial Biotransformation” value in data set [13], in [14], in [15], in [16], in data set [17] and in data set [18] was “Compound metabolized” in each case. Besides, the figures for the “Bacterial Biotransformation” value in data set [19] and in [20] were “Compound NOT metabolized” and “Compound metabolized”, respectively.

The values above are taken from ChEMBL document CHEMBL5724914, “Linking interpersonal differences in gut microbiota composition and drug biotransformation activity” (2024).
